1 compound from PMC12990037, “Discovery of Two Structurally Distinct Classes of Inhibitors Targeting the Nuclease MUS81 and Enhancing Efficacy of Chemotherapy in Cancer Cells” (Journal of Medicinal Chemistry, 2026) can be followed below.

Experiment [1] concerns the target T1, truncated MUS81 binding to immobilized DNA substrate (Homo sapiens, UniProt Q96NY9).
T1 construct: made in house
T1 sequence (Q96NY9 246-551): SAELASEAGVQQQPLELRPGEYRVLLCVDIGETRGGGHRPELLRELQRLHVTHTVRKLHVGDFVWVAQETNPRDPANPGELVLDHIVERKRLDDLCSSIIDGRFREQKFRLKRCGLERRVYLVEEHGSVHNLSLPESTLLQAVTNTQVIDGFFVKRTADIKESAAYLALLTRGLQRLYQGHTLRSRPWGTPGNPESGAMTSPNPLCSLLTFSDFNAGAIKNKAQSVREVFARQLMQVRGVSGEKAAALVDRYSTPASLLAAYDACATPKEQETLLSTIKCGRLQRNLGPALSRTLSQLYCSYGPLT
T1 sequence (Q96AY2 178-570 partner limits assumed): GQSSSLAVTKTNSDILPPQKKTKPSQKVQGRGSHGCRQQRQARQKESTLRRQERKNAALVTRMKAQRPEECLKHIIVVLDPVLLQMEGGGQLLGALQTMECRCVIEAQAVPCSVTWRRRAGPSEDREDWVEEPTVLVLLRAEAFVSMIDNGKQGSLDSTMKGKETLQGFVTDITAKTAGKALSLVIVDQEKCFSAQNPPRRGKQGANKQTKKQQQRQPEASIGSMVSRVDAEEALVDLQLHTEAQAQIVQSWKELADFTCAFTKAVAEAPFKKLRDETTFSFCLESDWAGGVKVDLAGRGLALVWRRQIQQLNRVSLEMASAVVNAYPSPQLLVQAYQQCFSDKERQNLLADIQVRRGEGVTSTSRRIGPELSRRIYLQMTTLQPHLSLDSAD
Nature of the experiment: Biolayer interferometry (BLI). Conditions: truncated MUS81 200 nM. On the procedure: (A,B) Purified MUS81–EME1 (160 nM) was incubated with increasing concentrations of MU262, MU876, or their respective control analogues, followed by the addition of 3 nM fluorescently labeled 3′ flap DNA substrate. MgCl2 was omitted from the reaction buffer to prevent substrate cleavage. The reaction products were resolved on a native PAGE gel. The lower band represents a free DNA substrate, while the upper smear corresponds to the MUS81–DNA complex. n = 3. (C,D) A 3′ flap cleavage-resistant DNA substrate was immobilized on a streptavidin-coated (SAX) sensor and incubated with truncated MUS81 (200 nM) alone, or with MUS81 premixed with DMSO, MU876, MU262, or their respective control analogues. The real-time binding kinetics were measured as a change in optical thickness over time. Representative plots shown from two independent experiments. (E) Representative images of a DMSO-treated cell within 100 s after microirradiation. GFP-MUS81 U2OS cells were preincubated with DMSO or MU876 at 1 and 5 μM final concentration for 2 h. Localized DNA damage was induced using a 355 nm laser microirradiation at specific sites in individual nuclei. […] (F) The integrated intensity of a GFP-MUS81 signal accumulation ± SE from (E). n = 3.
On the technique in general: Biolayer interferometry detects binding as a change in optical thickness at a sensor tip.

The target of experiment [2] is T2, MUS81–EME1 (Homo sapiens, UniProt Q96NY9).
T2 construct: The MUS81–EME1 full-length expression plasmid was obtained from Stephen C; West; made in house; host or cells: Escherichia coli
T2 sequence (Q96NY9 1-551): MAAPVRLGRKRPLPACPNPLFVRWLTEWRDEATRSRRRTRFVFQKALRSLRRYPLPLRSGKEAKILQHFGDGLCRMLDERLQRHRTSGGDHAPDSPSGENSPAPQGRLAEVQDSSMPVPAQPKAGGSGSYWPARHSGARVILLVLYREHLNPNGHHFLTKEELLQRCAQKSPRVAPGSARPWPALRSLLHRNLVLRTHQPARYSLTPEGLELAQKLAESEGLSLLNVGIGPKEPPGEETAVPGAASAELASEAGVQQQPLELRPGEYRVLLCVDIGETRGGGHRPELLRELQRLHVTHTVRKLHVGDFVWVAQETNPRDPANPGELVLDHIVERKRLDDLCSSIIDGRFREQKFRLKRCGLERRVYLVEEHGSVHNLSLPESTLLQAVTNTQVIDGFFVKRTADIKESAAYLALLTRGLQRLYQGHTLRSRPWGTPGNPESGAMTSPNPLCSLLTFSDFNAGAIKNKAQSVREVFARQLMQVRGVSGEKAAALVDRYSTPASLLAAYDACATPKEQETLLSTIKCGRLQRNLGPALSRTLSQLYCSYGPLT
T2 sequence (Q96AY2 1-570 partner): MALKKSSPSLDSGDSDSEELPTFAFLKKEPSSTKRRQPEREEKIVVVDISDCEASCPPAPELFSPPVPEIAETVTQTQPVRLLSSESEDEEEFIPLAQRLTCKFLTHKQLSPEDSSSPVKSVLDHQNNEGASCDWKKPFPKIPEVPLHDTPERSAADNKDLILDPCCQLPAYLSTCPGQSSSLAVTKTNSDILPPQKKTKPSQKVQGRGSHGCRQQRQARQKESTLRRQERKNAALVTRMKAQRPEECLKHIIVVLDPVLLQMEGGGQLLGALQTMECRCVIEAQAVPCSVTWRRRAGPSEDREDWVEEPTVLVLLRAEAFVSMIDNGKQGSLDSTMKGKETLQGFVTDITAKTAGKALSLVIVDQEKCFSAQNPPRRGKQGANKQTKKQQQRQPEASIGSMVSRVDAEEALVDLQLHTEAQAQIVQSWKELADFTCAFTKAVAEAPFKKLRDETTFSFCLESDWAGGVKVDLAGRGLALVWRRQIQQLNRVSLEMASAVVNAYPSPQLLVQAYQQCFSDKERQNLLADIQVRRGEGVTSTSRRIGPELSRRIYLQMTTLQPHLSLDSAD
Nature of the experiment: Gel-based in vitro nuclease assay: cleavage of 3′flap DNA by purified MUS81–EME1. The format is biochemical. The method, then:
To identify the small-molecule inhibitors of MUS81, we used two complementary screening approaches. The first involved a structure-based virtual screening, where over 140,000 small molecules were docked into the active site of MUS81 using AutoDock Vina software. […] The cleavage by purified MUS81-EME1 was monitored by gel electrophoresis, and the compound activity was quantified by measuring the reduction in cleavage product intensity.
Nuclease assays were performed in reaction buffer containing 50 mM Tris pH 7.5, 10 mM MgCl2, 1 mM DTT, 85 mM KCl, and 20% glycerol. Purified MUS81–EME1 (1 nM) was preincubated in 9 μL reaction with indicated concentrations of inhibitors for 15 min at room temperature, followed by the addition of 3 nM of a 3′flap DNA substrate (listed in Supplementary Table 9) and a further incubation for 15 min at 37 °C. The final concentration of DMSO in the reactions was 2%. The reactions were stopped by the addition of 0.1% SDS and 500 μg/mL of proteinase K, followed by incubation for 5 min at 37 °C. […] The fluorescent DNA was visualized using a FLA-9000 (Fujifilm). Bands corresponding to cleaved substrates were selected for quantification using the MultiGauge 3.2 software. Final data represent integrated density of these bands with background subtraction. Fitting of the data with sigmoid curves was performed in OriginPro (OriginLab).

Experiment [3] concerns the target T3, MUS81–EME1 binding to 3′ flap DNA substrate (Homo sapiens, UniProt Q96NY9).
T3 construct: The MUS81–EME1 full-length expression plasmid was obtained from Stephen C; West; made in house; host or cells: Escherichia coli
T3 sequence (Q96NY9 1-551): T2 sequence (Q96NY9 1-551)
T3 sequence (Q96AY2 1-570 partner): T2 sequence (Q96AY2 1-570 partner)
Nature of the experiment: Electrophoretic mobility shift assay (EMSA). The conditions noted are these: MUS81–EME1 160 nM, no MgCl2.
Method: Purified MUS81–EME1 (160 nM) was incubated in a modified assay buffer without MgCl2 (50 mM Tris–HCl pH 7.4, 150 mM NaCl, and 0.05% Tween-20) with 15 nM of a 3′flap DNA substrate (listed in Supplementary Table 5) in the absence or presence of selected inhibitors at RT for 10 min, followed by an incubation at 25 °C for 10 min. The reaction was stopped on ice and products were resolved using native PAGE (7.5% acrylamide gel in 0.5% TBE) at 4 °C for 50 min (6.5 V/cm). Gel images were captured using a FLA-9000 (Fujifilm) and Typhoon (Amersham) scanners and quantified with Multi Gauge V3.2 software (Fujifilm).

What is called IC50 is the concentration needed to halve the response being measured. High values mean weaker potency, low ones greater potency. `CCc1nn2c(O)c(-c3nc4ccccc4[nH]3)nnc2c1-c1ccc(F)cc1` [Compound 18, 3-(1H-Benzo[d]imidazole-2-yl)-7-ethyl-8-(4-fluorophenyl)pyrazolo[5,1-c][1,2,4]triazin-4-ol]: the “effect on MUS81–DNA binding (BLI)” value in experiment [1] was “only negligible effect”. The IC50 in experiment [2] (Table 1, in vitro) was under 1000 nM; in experiment [2] (text and figures, MUS81–EME1 1 nM, 3 nM 3′ flap DNA), 870 nM. For the same compound, in experiment [3], the “effect on MUS81–EME1 binding to 3′ flap DNA (EMSA)” value is “neither MU262 nor its inactive analogue MU1066 disrupted the MUS81–DNA interaction”.
